The source of these data is ChEMBL document CHEMBL5154637, “Peptidomimetic α-Acyloxymethylketone Warheads with Six-Membered Lactam P1 Glutamine Mimic: SARS-CoV-2 3CL Protease Inhibition, Coronavirus Antiviral Activity, and in Vitro Biological Stability” (J Med Chem, 2022).

For orientation: EC50 means the midpoint of the concentration-response curve. The CC50 is the concentration at which the toxic effect on the cells reaches its halfway point. In general, Papp B→A refers to the apparent permeability from the basolateral to the apical side of a cell layer. Usually pKa stands for the pH at which an ionisable group is half protonated. What is called inhibition is the share of the control response that was lost under treatment. What is called half-life is the time in which the quantity being followed falls by half. As a reminder, the logD is the decadic logarithm of the distribution of all forms, ionised or not, between an organic phase and buffer at a given pH.

Some results are limits rather than exact numbers.

The test system of one series is Human coronavirus 229E. Kind of series: Antiviral activity against Human coronavirus 229E infected in human MRC5 cells assessed as reduction in virus-induced cytopathic effect incubated for 3 days by Celltiter-Glo assay. Type of series: functional, organism-based. The settings on record: MRC5, 72 h.
Series [1] can be described thus: Antiviral activity against Human coronavirus OC43 infected in human Huh-7 cells assessed as reduction in virus-induced cytopathic effect incubated for 7 days by Celltiter-Glo assay. The settings on record: Betacoronavirus 1, OC43, Huh-7, 168 h. In kind it is functional, cell-based. Background: Damage to the host cells serves as the signal in cytopathic effect assays.

Series [2] in a line: Cytotoxicity against human Huh-7 cells assessed as reduction in cell viability incubated for 24 hrs by Celltiter-glo luminescent cell viability assay. Type of series: toxicity, cell-based. (ATP-based viability assays read luminescence as a measure of living cells.)
A short description of series [3]: in vitro. The settings on record: human, Huh-7 cells.
Series [4] can be described thus: Cytotoxicity against human MRC5 cells assessed as reduction in cell viability incubated for 24 hrs by Celltiter-glo luminescent cell viability assay. In kind it is toxicity, cell-based.
Series [5] can be described thus: Apparent permeability from basolateral to apical side in human Caco-2 cells at 2 uM with pH 7.4 incubated for 2 hrs by LC-MS analysis. Type of series: ADME, cell-based. Conditions: Caco-2, pH 7.4. On the technique in general: Passage across Caco-2 layers is used to estimate intestinal permeability.
Series [6] in a line: Dissociation constant, pKa of the compound. In kind it is physicochemical.
A further series addresses Cathepsin S (Homo sapiens, UniProt P25774). Kind of series: Inhibition of human cathepsin S at 1 uM incubated for 30 mins by fluorometric analysis.
Series [7] can be described thus: Efflux ratio of apparent permeability across basal to apical membrane over apical to basal membrane in human Caco-2 cells at 2 uM with pH 7.4 incubated for 2 hrs by LC-MS analysis. The settings on record: caco-2, pH 7.4, 2 h. Type of series: ADME, cell-based.
The next series addresses Cathepsin B (Homo sapiens, UniProt P07858). Kind of series: Inhibition of human cathepsin B at 1 uM incubated for 30 mins by fluorometric analysis.
Series [8] in a line: in vitro. Conditions: chlorocebus sabaeus, Vero E6 cells.
Series [9] can be described thus: Metabolic stability in human plasma measured at 2 hrs by LC-MS analysis. Conditions: read-out: Stability. In kind it is ADME, cell-free.
The subject of a further series is SARS-CoV-2. Kind of series: microbe, parasite or virus in culture. Conditions: Severe acute respiratory syndrome coronavirus 2, Vero C1008, 48 h.
A short description of series [10]: Selectivity index, ratio of CC50 for cytotoxicity against human A549 cells assessed as reduction in cell viability to EC50 for antiviral activity against SARS-CoV-2 3CL protease. Type of series: toxicity, cell-based. Conditions: read-out: Ratio CC50/EC50.
The nature of series [11]: in vitro. Conditions: human, A549 cells.
The nature of series [12]: Metabolic stability in CD-1 mouse Hepatocytes assessed as half life at 3 uM measured upto 90 mins by LC-MS/MS analysis. Conditions: CD-1, mouse. Type of series: ADME, cell-based, Hepatocyte.
A short description of series [13]: Microsomal stability in CD-1 mouse liver microsomes assessed as half life at 1 uM measured upto 60 mins in presence of NADPH by LC-MS/MS analysis. In kind it is ADME, Microsome. The settings on record: CD-1, mouse, liver microsomes.
Series [14] in a line: Stability in CD-1 mouse plasma assessed as half life at 2 uM measured upto 120 mins by LC-MS/MS analysis. In kind it is ADME, cell-free.
Series [15] is described as follows: Selectivity index, ratio of CC50 for cytotoxicity against African green monkey VeroE6 cells assessed as reduction in cell viability to EC50 for antiviral activity against SARS-CoV-2 3CL protease. In kind it is toxicity, cell-based. Conditions: read-out: Ratio.
Series [16] in a line: Stability of compound in glutathione at pH 7.4 after 24 hrs by LC-MS analysis. Type of series: physicochemical. Conditions: read-out: Stability.
The nature of series [17]: Lipophilicity, log D of the compound at phosphate buffer pH 7.4 by shake flask method based LC-MS/MS analysis. Type of series: physicochemical.

Cathepsin S, sequence (P25774 115-331 limits assumed): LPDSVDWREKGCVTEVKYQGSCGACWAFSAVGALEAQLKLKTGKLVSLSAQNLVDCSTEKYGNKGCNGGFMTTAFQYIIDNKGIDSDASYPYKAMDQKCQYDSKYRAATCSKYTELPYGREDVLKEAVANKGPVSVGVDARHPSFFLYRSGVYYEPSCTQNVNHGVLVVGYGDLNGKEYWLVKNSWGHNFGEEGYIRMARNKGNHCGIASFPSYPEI

For the compound `CCC(CC)COC(=O)[C@H](C)N[P@](=O)(OC[C@H]1O[C@@](C#N)(c2ccc3c(N)ncnn23)[C@H](O)[C@@H]1O)Oc1ccccc1`, the EC50 in the series with Human coronavirus 229E was found to be 35 nM; in [1], 20 nM. Further, the CC50 at 24 h in series [2] was 10400 nM; in series [4] it was over 100000 nM. Besides, in “in vitro [3]”, the selectivity ratio is 518.

For the compound `COc1cccc2[nH]c(C(=O)N[C@@H](CC(C)C)C(=O)N[C@@H](C[C@@H]3CCCNC3=O)C(=O)COC(=O)c3c(C(F)(F)F)cc(C)nc3C)cc12`, the Papp B→A at 2 h, 2 µM in series [5] was 28.9 ×10⁻⁶ cm/s. Also, the EC50 in the series on Human coronavirus 229E was found to be 30 nM; in [1], 45 nM; in the series with SARS-CoV-2, 470 nM. The pKa in series [6] amounted to 1.7. In addition, the inhibition at Cathepsin S turned out to be 98.4%; on Cathepsin B, 95%. Further, the Ratio in series [7] was 1146. For the same compound, the CC50 at 24 h was over 200000 nM in the series “in vitro [8]”, over 200000 nM in “in vitro [11]”, 67600 nM in [2] and over 100000 nM in [4]. Besides, in series [9], the remaining at 2 h was determined as 99%. The selectivity ratio in [10] and in [15] was over 426 throughout. In series [12], the half-life at 3 µM amounted to 1.9 min. In addition, in series [13], the half-life at 1 µM came to 1 min. Further, the half-life at 2 µM in series [14] is over 289 min. In addition, the remaining at 24 h in [16] is over 80%. For the same compound, the logD in [17] was found to be 4.11.
